ChEMBL document CHEMBL4725307, “Topical 'dual-soft' glucocorticoid receptor agonist for dermatology” (Bioorg Med Chem Lett, 2020)
One block for each compound: values may come before it.

Tests used:
Glucocorticoid receptor = target: T1, Glucocorticoid receptor (Homo sapiens, UniProt P04150); assay: Agonist activity at human glucocorticoid receptor in PBMC assessed as inhibition of LPS-induced TNFalpha release; format: tissue-based
T1 sequence (P04150 whole entry): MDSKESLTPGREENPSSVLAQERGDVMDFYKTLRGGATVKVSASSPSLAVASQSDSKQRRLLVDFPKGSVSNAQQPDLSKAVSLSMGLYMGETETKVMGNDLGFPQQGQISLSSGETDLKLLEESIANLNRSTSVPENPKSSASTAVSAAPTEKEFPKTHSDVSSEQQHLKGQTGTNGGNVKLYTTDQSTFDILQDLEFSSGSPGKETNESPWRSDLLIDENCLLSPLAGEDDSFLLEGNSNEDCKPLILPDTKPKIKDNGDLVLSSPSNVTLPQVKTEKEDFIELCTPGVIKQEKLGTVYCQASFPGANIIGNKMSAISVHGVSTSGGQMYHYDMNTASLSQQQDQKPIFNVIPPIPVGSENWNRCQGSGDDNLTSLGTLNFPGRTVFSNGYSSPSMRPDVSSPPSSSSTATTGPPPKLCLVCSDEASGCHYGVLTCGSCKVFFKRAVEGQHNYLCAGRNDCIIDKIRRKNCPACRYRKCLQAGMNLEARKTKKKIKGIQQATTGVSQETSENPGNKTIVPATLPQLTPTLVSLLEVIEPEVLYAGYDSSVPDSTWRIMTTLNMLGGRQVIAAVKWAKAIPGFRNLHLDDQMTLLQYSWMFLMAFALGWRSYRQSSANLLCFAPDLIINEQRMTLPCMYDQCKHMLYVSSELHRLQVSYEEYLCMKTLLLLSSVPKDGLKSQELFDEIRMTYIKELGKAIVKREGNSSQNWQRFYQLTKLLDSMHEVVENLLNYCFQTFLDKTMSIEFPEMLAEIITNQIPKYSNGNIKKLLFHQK

[1] = Hepatic clearance in iv dosed rat; format: ADME, organism-based; settings: in vivo
Homo sapiens [2] = species on record: Homo sapiens; assay: Selectivity ratio for agonist activity at mineralocorticoid receptor (unknown origin) to agonist activity at glucocorticoid receptor (unknown origin)
Homo sapiens [3] = species on record: Homo sapiens; assay: Selectivity ratio for agonist activity at androgen receptor (unknown origin) to agonist activity at glucocorticoid receptor (unknown origin)
Homo sapiens [4] = species on record: Homo sapiens; assay: Selectivity ratio for agonist activity at progesterone receptor (unknown origin) to agonist activity at glucocorticoid receptor (unknown origin)
[5] = target: Voltage-gated inwardly rectifying potassium channel KCNH2 (Homo sapiens, UniProt Q12809); assay: Inhibition of human ERG
Voltage-gated inwardly rectifying potassium channel KCNH2, sequence (Q12809 whole entry): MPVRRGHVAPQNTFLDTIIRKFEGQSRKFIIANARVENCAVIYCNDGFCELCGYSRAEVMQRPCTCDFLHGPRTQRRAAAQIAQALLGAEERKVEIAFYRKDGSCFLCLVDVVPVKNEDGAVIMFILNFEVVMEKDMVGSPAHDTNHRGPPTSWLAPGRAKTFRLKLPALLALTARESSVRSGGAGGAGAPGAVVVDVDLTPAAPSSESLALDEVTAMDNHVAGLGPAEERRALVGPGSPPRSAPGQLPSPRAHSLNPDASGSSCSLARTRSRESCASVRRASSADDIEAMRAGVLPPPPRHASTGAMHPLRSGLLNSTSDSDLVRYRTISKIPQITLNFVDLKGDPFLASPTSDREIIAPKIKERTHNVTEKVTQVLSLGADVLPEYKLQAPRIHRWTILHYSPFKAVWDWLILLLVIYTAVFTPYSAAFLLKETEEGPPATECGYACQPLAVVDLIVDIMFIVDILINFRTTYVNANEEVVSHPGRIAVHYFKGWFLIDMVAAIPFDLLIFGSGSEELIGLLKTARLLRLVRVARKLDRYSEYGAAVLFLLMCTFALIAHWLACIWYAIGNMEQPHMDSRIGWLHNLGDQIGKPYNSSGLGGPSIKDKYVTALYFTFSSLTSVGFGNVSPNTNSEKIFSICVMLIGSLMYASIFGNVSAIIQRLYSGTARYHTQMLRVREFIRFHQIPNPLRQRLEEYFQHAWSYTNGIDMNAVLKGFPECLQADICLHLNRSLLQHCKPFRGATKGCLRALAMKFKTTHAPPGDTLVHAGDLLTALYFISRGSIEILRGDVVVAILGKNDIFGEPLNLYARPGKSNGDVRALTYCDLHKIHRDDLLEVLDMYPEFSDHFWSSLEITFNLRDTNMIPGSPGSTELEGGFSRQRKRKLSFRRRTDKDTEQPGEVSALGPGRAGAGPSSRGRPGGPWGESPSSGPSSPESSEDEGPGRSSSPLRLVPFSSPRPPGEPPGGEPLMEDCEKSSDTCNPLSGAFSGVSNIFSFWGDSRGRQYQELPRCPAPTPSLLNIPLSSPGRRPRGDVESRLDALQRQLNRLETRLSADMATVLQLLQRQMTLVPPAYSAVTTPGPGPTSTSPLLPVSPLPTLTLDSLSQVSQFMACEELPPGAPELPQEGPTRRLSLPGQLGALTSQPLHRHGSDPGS

Cytochrome P450 = assay: Inhibition of CYP450 (unknown origin); format: protein assay; settings: human
[6] = Half life in human whole blood; format: ADME, tissue-based
[7] = Half life in cultured human keratinocytes; format: ADME, cell-based, Keratinocyte
[8] = Drug metabolism in human whole blood assessed as (3R)-3-(hydroxymethyl)-4-oxo-4-[(3S)-3-[[5-[(1R,2S)-1-(p-tolyl)-2-[(2,2,2-trifluoroacetyl)amino]propoxy]pyridine-2-carbonyl]amino]-1-piperidyl]butanoic acid metabolite formation; format: ADME, tissue-based
[9] = Drug metabolism in human hepatocytes assessed as (3R)-3-(hydroxymethyl)-4-oxo-4-[(3S)-3-[[5-[(1R,2S)-1-(p-tolyl)-2-[(2,2,2-trifluoroacetyl)amino]propoxy]pyridine-2-carbonyl]amino]-1-piperidyl]butanoic acid metabolite formation; format: ADME, cell-based, Hepatocyte
[10] = Drug metabolism in dog whole blood assessed as (3R)-3-(hydroxymethyl)-4-oxo-4-[(3S)-3-[[5-[(1R,2S)-1-(p-tolyl)-2-[(2,2,2-trifluoroacetyl)amino]propoxy]pyridine-2-carbonyl]amino]-1-piperidyl]butanoic acid metabolite formation; format: ADME, tissue-based, Canis lupus familiaris
[11] = Drug metabolism in dog hepatocytes assessed as (3R)-3-(hydroxymethyl)-4-oxo-4-[(3S)-3-[[5-[(1R,2S)-1-(p-tolyl)-2-[(2,2,2-trifluoroacetyl)amino]propoxy]pyridine-2-carbonyl]amino]-1-piperidyl]butanoic acid metabolite formation; format: ADME, cell-based, Canis lupus familiaris, Hepatocyte
[12] = Drug metabolism in pig whole blood assessed as (3R)-3-(hydroxymethyl)-4-oxo-4-[(3S)-3-[[5-[(1R,2S)-1-(p-tolyl)-2-[(2,2,2-trifluoroacetyl)amino]propoxy]pyridine-2-carbonyl]amino]-1-piperidyl]butanoic acid metabolite formation; format: ADME, tissue-based, Sus scrofa
[13] = Drug metabolism in pig hepatocytes assessed as (3R)-3-(hydroxymethyl)-4-oxo-4-[(3S)-3-[[5-[(1R,2S)-1-(p-tolyl)-2-[(2,2,2-trifluoroacetyl)amino]propoxy]pyridine-2-carbonyl]amino]-1-piperidyl]butanoic acid metabolite formation; format: ADME, cell-based, Sus scrofa, Hepatocyte
[14] = Drug metabolism in rat whole blood assessed as (3R)-3-(hydroxymethyl)-4-oxo-4-[(3S)-3-[[5-[(1R,2S)-1-(p-tolyl)-2-[(2,2,2-trifluoroacetyl)amino]propoxy]pyridine-2-carbonyl]amino]-1-piperidyl]butanoic acid metabolite formation; format: ADME, tissue-based
[15] = Drug metabolism in rat hepatocytes assessed as (3R)-3-(hydroxymethyl)-4-oxo-4-[(3S)-3-[[5-[(1R,2S)-1-(p-tolyl)-2-[(2,2,2-trifluoroacetyl)amino]propoxy]pyridine-2-carbonyl]amino]-1-piperidyl]butanoic acid metabolite formation; format: ADME, cell-based, Hepatocyte
[16] = Chemical stability assessed as parent compound remaining at pH 5.5 and 37 degreeC measured after 16 hrs; format: physicochemical; settings: buffer, read-out: Stabilty
[17] = Chemical stability assessed as parent compound remaining at pH 7 and 37 degreeC measured after 16 hrs; format: physicochemical; settings: buffer, read-out: Stabilty
[18] = Photostability of the compound; format: physicochemical
[19] = target: T2, Glucocorticoid receptor (Homo sapiens) (UniProt P04150); assay: Agonist activity at human glucocorticoid receptor assessed as inhibition of LPS-induced TNFalpha release in PBMC relative to control; format: tissue-based
T2 sequence (whole entry): T1 sequence (P04150 whole entry)

- IC50 (Glucocorticoid receptor): 1 nM
SMILES: C[C@H](NC(=O)C(F)(F)F)[C@H](Oc1ccc(C(=O)O[C@H]2CCCN(C(=O)[C@H]3COC(=O)C3)C2)cc1)c1ccc(C2CC2)cc1

- IC50 (Glucocorticoid receptor): 2 nM
- CLH [1]: 500 mL/min/kg
- Selectivity ratio (Homo sapiens [2]): > 100
- Selectivity ratio (Homo sapiens [3]): > 100
- Selectivity ratio (Homo sapiens [4]): > 100
- inhibition (INH) (Cytochrome P450): Not Active
SMILES: C[C@H](NC(=O)[C@H]1CCCO1)[C@H](Oc1ccc(C(=O)O[C@H]2CCCN(C(=O)[C@H]3COC(=O)C3)C2)cc1)c1ccc(C2CC2)cc1
- inhibition (INH) [5]: Not Active

- IC50 (Glucocorticoid receptor): 26 nM
SMILES: Cc1ccc([C@@H](Oc2ccc(C(=O)Nc3ccccc3)nc2)[C@H](C)NC(=O)C(F)(F)F)cc1

- half-life [6]: 0.283 h
SMILES: Cc1ccc([C@@H](Oc2ccc(C(=O)N[C@@H]3CCCN(C(=O)[C@@H]4COC(=O)C4)C3)nc2)[C@H](C)NC(=O)C(F)(F)F)cc1

- half-life [6]: < 0.167 h
- half-life [7]: > 6 h
- Drug metabolism [8]: Metabolite_Detected
- Drug metabolism [9]: Metabolite_Detected
- Drug metabolism [10]: Metabolite_Detected
- Drug metabolism [11]: Metabolite_Detected
- Drug metabolism [12]: Metabolite_Detected
- Drug metabolism [13]: Metabolite_Detected
- Drug metabolism [14]: Metabolite_Detected
- Drug metabolism [15]: Metabolite_Detected
- remaining at 16 h [16]: > 95%
- remaining at 16 h [17]: 82%
- Stabilty [18]: Stable
SMILES: Cc1ccc([C@@H](Oc2ccc(C(=O)N[C@H]3CCCN(C(=O)[C@H]4COC(=O)C4)C3)nc2)[C@H](C)NC(=O)C(F)(F)F)cc1

- half-life [6]: 0.733 h
SMILES: Cc1ccc([C@@H](Oc2ccc(C(=O)N[C@@H]3CCCN(C(=O)[C@@H]4CCC(=O)O4)C3)nc2)[C@H](C)NC(=O)C(F)(F)F)cc1

- half-life [6]: < 0.167 h
- half-life [7]: > 6 h
SMILES: Cc1ccc([C@@H](Oc2ccc(C(=O)N[C@@H]3CCCN(C(=O)[C@H]4COC(=O)C4)C3)nc2)[C@H](C)NC(=O)C(F)(F)F)cc1

- IC50 (Glucocorticoid receptor): 22 nM
SMILES: C[C@H](NC(=O)[C@@H]1CCCO1)[C@H](Oc1ccc(C(=O)O[C@H]2CCCN(C(=O)[C@H]3COC(=O)C3)C2)cc1)c1ccc(C2CC2)cc1

- half-life [6]: 1.7 h
- half-life [7]: > 6 h
SMILES: Cc1ccc([C@@H](Oc2ccc(C(=O)N[C@H]3CCCN(C(=O)[C@@H]4COC(=O)C4)C3)nc2)[C@H](C)NC(=O)C(F)(F)F)cc1

- half-life [6]: > 2 h
- half-life [7]: > 6 h
SMILES: Cc1ccc([C@@H](Oc2ccc(C(=O)N[C@H]3CCCN(C(=O)[C@H]4CCC(=O)O4)C3)nc2)[C@H](C)NC(=O)C(F)(F)F)cc1

- IC50 (Glucocorticoid receptor): 2 nM
SMILES: Cc1ccc([C@@H](Oc2ccc3c(cnn3-c3ccc(F)cc3)c2)[C@H](C)NC(=O)C(F)(F)F)cc1

- half-life [6]: 1.38 h
SMILES: Cc1ccc([C@@H](Oc2ccc(C(=O)N[C@H]3CCCN(C(=O)[C@@H]4CCC(=O)O4)C3)nc2)[C@H](C)NC(=O)C(F)(F)F)cc1

- IC50 (Glucocorticoid receptor): 79 nM
SMILES: Cc1ccc([C@@H](Oc2ccc(C(=O)N[C@H]3CCCN(C(=O)[C@H]4COC(=O)C4)C3)cc2)[C@H](C)NC(=O)C(F)(F)F)cc1

- fold change (FC) [19]: > 100
SMILES: C[C@H](NC(=O)[C@H]1CCCO1)[C@H](Oc1ccc(C(=O)O[C@H]2CCCN(C(=O)[C@@H](CO)CC(=O)O)C2)cc1)c1ccc(C2CC2)cc1

- half-life [6]: 0.85 h
SMILES: Cc1ccc([C@@H](Oc2ccc(C(=O)N[C@@H]3CCCN(C(=O)[C@H]4CCC(=O)O4)C3)nc2)[C@H](C)NC(=O)C(F)(F)F)cc1
